Results reported in article PMC12290673, “Antileishmanial and Antitoxoplasmal Activities of 1,4-Dihydropyridines” (ACS Omega, 2025).
Like-named read-outs stand apart in the source and are kept apart here.

Tests used:
L. major promastigotes = test: Activity against L. major promastigotes (MTT, 72 h); assay type: cell-based, Leishmania major; details: mean ± SD, read-out: EC50 L. major prom
Procedure: (§1) L. major promastigotes were isolated and maintained according to a described method. BALB/c mice were injected at the hind footpads with 1 × 10^6 L. major metacyclic promastigotes. L. major amastigotes were collected from the infected mice. After 8 weeks had elapsed since inoculation, Schneider’s medium (Invitrogen, USA) containing antibiotics and 10% FBS was used to transform isolated amastigotes into promastigotes by incubation at 26 °C. Amastigote-derived promastigotes with less than five in vitro passages were only used for infection.
To assess the activity of the compounds against L. major promastigotes, 10^6 promastigotes/mL were cultured in 96-well plates in Schneider’s medium with 10% FBS. Then, the compounds or amphotericin B (AmB) were added to obtain the final concentrations (50, 25, 12.5, 6.25, 3.13, 1.65, 0.75, or 0.37 μg mL^–1). Negative control wells contained cultures with DMSO (1%) only. Plates were incubated at 26 °C for 72 h to evaluate the antiproliferative effect. The colorimetric MTT method was used to count viable promastigotes under a microplate absorbance spectrophotometer (xMark, Bio-Rad, USA) at 570 nm. The experiment was performed in triplicate.

[1] = tested on: T. gondii tachyzoites (RH strain); test: Anti-Toxoplasma activity (infection index in Vero cells, 72 h); assay type: cell-based, Toxoplasma gondii; details: mean ± SD
Procedure: Tachyzoites of the T. gondii RH strain were cultivated in Vero cells according to a published method. Complete RPMI 1640 medium (Invitrogen, USA) with 10% fetal bovine serum (FBS, Invitrogen, USA) was used to culture Vero cells in 96-well plates (5 × 10^3 cells/well in 200 μL of medium), which were incubated at 37 °C and under 5% CO2 for 24 h. This was followed by washing with phosphate-buffered saline (PBS) to remove the medium. Then, RPMI 1640 medium with 2% FBS containing T. gondii tachyzoites (RH strain) at a ratio of 5 (parasite): 1 (Vero cells) was added. After incubation at 37 °C and under 5% CO2 for 5 h, the cells were washed with PBS and overlaid with medium containing one of the tested compounds or atovaquone (ATO) at 50, 25, 12.5, 6.25, 3.13, 1.65, 0.75, or 0.37 μg mL^–1.
After incubation at 37 °C and under 5% CO2 for 72 h, the cells were stained with 1% toluidine before being examined under an inverted photomicroscope (MCD-400, Leica, Japan) to determine the T. gondii infection index (number of infected cells from 200 tested cells). The experiment was performed in triplicate.

L. major amastigotes = test: Activity against L. major amastigotes in peritoneal macrophages (percentage of infected macrophages, Giemsa, 72 h); assay type: cell-based, Leishmania major; details: intracellular amastigotes, mean ± SD, read-out: EC50 L. major ama
Procedure: as §1
(§2) Female BALB/c mouse peritoneal macrophages (6–8 weeks old) were used to culture L. major amastigotes to assess the activity of the compounds against amastigotes. Briefly, 1 mL of 3% Brewer’s thioglycollate medium/mouse was injected into the peritoneal cavity. After 4 days, the abdominal skin was removed to expose the peritoneal wall. Then, 3 mL of RPMI 1640 medium was injected before cells were collected by aspiration, whereupon 96-well plates containing RPMI 1640 medium with 10% FBS were used to culture 5 × 10^4 cells/well, which were incubated at 37 °C under 5% CO2 for 4 h. After washing with PBS, RPMI 1640 medium containing 5 × 10^5 promastigotes were added to each well. Next, the cells were incubated at 37 °C under humidified 5% CO2 for 24 h to enhance infection and differentiation of amastigotes. Washing with PBS several times removed free promastigotes. Fresh complete RPMI 1640 medium containing one of the tested compounds or AmB at the desired final concentration (50, 25, 12.5, 6.25, 3.13, 1.65, 0.75, or 0.37 μg mL^–1) was added and incubated at 37 °C under a humidified 5% CO2 atmosphere for 72 h. DMSO (1%), only in complete RPMI media, was used as the negative control. The percentage of infected macrophages was assessed microscopically after the medium was removed, followed by washing with PBS, fixation with methanol, and staining with Giemsa. The reading was performed in triplicate. Handling of the laboratory animals followed the instructions and rules of the Committee of Research Ethics, Deanship of Scientific Research, Qassim University, permission number 20–03–20.

Vero cells = test: Cytotoxicity assay (MTT), Vero cells; assay type: cell-based, African Green Monkey; details: Chlorocebus sabaeus, 72 h, mean ± SD
Procedure: (§3) The MTT colorimetric assay was conducted to assess the cytotoxicity of the compounds according to a method described previously. Briefly, Vero cells or macrophages were cultured in 96-well plates (5 × 10^3 cells/well/200 μL) in RPMI 1640 medium with 10% FBS at 37 °C and under 5% CO2 for 24 h. Thereafter, PBS was used to wash the cells. Then, the compounds in RPMI complete medium with 10% FBS (at varying concentrations of 50, 25, 12.5, 6.25, 3.13, 1.65, 0.75, or 0.37 μg mL^–1) were added to 96-well plates and incubated for 72 h. Cells treated with a medium containing only DMSO (1%) were used as the negative control. After washing, MTT (1 mg mL^–1 in RPMI 1640 medium) was added to each well. The cells were incubated for 4 h, and the supernatant was removed. Next, 150 μL of DMSO was added, and a microplate absorbance spectrophotometer was applied for colorimetric analysis (λ = 540 nm). Cytotoxic effects were expressed by IC50 values (concentration that caused a 50% reduction of viable cells). The experiment was performed in triplicate.

macrophages = test: Cytotoxicity assay (MTT), macrophages; assay type: cell-based, BALB/c mouse; details: Mus musculus, Macrophage; 72 h, mean ± SD; read-out: IC50 macro
Procedure: as §2, §3

[2] = tested on: L. amazonensis promastigotes; set-up: method as in Oliveira and co-workers; details: ref Oliveira and co-workers, cited from earlier work

Row | Structure (SMILES) | EC50 (L. major promastigotes; Leishmania major) [µM] | EC50 ([1]; Toxoplasma gondii, Vero) [µM] | EC50 (L. major amastigotes; Leishmania major) [µM] | IC50 (Vero cells) [µM] | IC50 (macrophages) [µM] | EC50 (L. major amastigotes) [µM] | IC50 ([2]; read-out: IC50 against L. amazonensis promastigotes) [µM] | EC50 (L. major promastigotes) [µM] | activity against L. amazonensis promastigotes [2] | EC50 [1] [µM]
1 | CCOC(=O)C1=C(C)NC2=C(C(=O)CC(C)(C)C2)C1c1ccc(O)c(OC)c1 (stereo not drawn) [Compound 11] | > 54 | 26.5 ± 3.6 | > 54 | 45.1 ± 7.9 | 48 ± 8.1 | – | – | – | – | –
2 | C[C@@H]1[C@H](O)[C@@H](C)/C=C/C=C/C=C/C=C/C=C/C=C/C=C/[C@H](O[C@@H]2O[C@H](C)[C@@H](O)[C@H](N)[C@@H]2O)C[C@@H]2O[C@](O)(C[C@@H](O)C[C@@H](O)[C@H](O)CC[C@@H](O)C[C@@H](O)CC(=O)O[C@H]1C)C[C@H](O)[C@H]2C(=O)O [AmB, amphotericin B, reference compound] | – | – | – | 10.3 ± 1.2 | – | – | – | – | – | –
3 | CCOC(=O)C1=C(C)NC2=C(C(=O)CC(C)(C)C2)C1c1ccc(N(C)C)cc1 (stereo not drawn) [Compound 5] | > 54.4 | 29.5 ± 4.1 | > 54.4 | 49.4 ± 8.8 | 49.9 ± 7.4 | – | – | – | – | –
4 | CCOC(=O)C1=C(C)NC2=C(C(=O)CC(C)(C)C2)C1c1ccc(OC)cc1 (stereo not drawn) [Compound 3] | > 56.3 | > 56.3 | > 56.3 | 49.8 ± 8.9 | 38.7 ± 6.8 | – | – | – | – | –
5 | CCOC(=O)C1=C(C)NC(C)=C(C(=O)OCC)C1c1cccc(F)c1 [Compound 21] | > 59.9 | > 59.9 | > 59.9 | > 59.9 | > 59.9 | – | – | – | – | –
6 | CCOC(=O)C1=C(C)NC2=C(C(=O)CC(C)(C)C2)C1c1cccc([N+](=O)[O-])c1 (stereo not drawn) [Compound 10] | > 54.1 | 16.4 ± 2.5 | 26.3 ± 3.7 | 10.7 ± 2.1 | 24.5 ± 3.6 | – | – | – | – | –
7 | CCOC(=O)C1=C(C)NC2=C(C(=O)CC(C)(C)C2)C1c1ccc(Br)cc1 (stereo not drawn) [Compound 6] | > 49.7 | 23.4 ± 3.5 | > 49.7 | 17.4 ± 2.9 | 23.4 ± 3.5 | – | – | – | – | –
8 | CCOC(=O)C1=C(C)NC2=C(C(=O)CC(C)(C)C2)C1c1ccccc1[N+](=O)[O-] (racemic) [Compound 9, (±)-ethyl 2,7,7-trimethyl-4-(2-nitrophenyl)-5-oxo-1,4,5,6,7,8-hexahydroquinoline-3-carboxylate] | > 58.2 | 12 ± 1.9 | 13.7 | 4.5 ± 0.7 | 12 ± 1.9 | 10.6 ± 2.1 | – | – | – | –
9 | CCOC(=O)C1=C(C)NC2=C(C(=O)CC(C)(C)C2)C1c1cc(OC)c(OC)c(OC)c1 (stereo not drawn) [Compound 13] | > 48.4 | > 48.4 | > 48.4 | > 48.4 | > 48.4 | – | 24.6 | – | – | –
10 | CCOC(=O)C1=C(C)NC(C)=C(C(=O)OCC)C1c1cc(OC)c(OC)c(OC)c1 [Compound 24] | < 50 | > 49.6 | > 49.6 | 14.8 ± 2.6 | 34.1 ± 5.5 | – | – | 42.7 ± 8 | inactive | –
11 | CCOC(=O)C1=C(C)NC2=C(C(=O)CC(C)(C)C2)C1c1ccccc1 (stereo not drawn) [Compound 1] | > 61.3 | > 61.3 | > 61.3 | > 61.3 | > 61.3 | – | – | – | – | –
12 | CCOC(=O)C1=C(C)NC(C)=C(C(=O)OCC)C1c1ccc(OC)cc1 [Compound 18] | > 57.9 | > 57.9 | > 57.9 | 45.4 ± 7.8 | > 57.9 | – | – | – | – | –
13 | CCOC(=O)C1=C(C)NC(C)=C(C(=O)OCC)C1c1ccccc1 [Compound 17] | > 63.1 | < 50 | > 63.1 | 60.1 ± 10.6 | > 63.1 | – | – | – | – | 49.8 ± 6.5
14 | CCOC(=O)C1=C(C)NC2=C(C(=O)CC(C)(C)C2)C1c1c(OC)cc(OC)cc1OC (stereo not drawn) [Compound 14] | – | > 48.4 | 21 ± 3.9 | 22.8 ± 3.3 | 16.8 ± 3.1 | – | – | – | inactive | –
15 | CCOC(=O)C1=C(C)NC2=C(C(=O)CC(C)(C)C2)C1c1ccco1 (stereo not drawn) [Compound 15] | < 50 | > 51.3 | > 51.3 | > 51.3 | > 51.3 | – | – | 40 ± 6.4 | – | –
16 | CCOC(=O)C1=C(C)NC2=C(C(=O)CC(C)(C)C2)C1c1cccs1 (stereo not drawn) [Compound 16] | > 49.3 | 8.1 ± 1.3 | 31.8 ± 5.4 | 12.6 ± 2.1 | 29.9 ± 5.1 | – | – | – | – | –
17 | CCOC(=O)C1=C(C)NC(C)=C(C(=O)OCC)C1c1cccc([N+](=O)[O-])c1 [Compound 22] | < 50 | – | > 55.6 | 29.9 ± 4.4 | 46.5 ± 7.4 | – | – | 46.5 ± 7.7 | inactive | –
18 | CCOC(=O)C1=C(C)NC(C)=C(C(=O)OCC)C1c1ccc(O)c(OC)c1 [Compound 23] | > 55.4 | < 50 | > 55.4 | 22.1 ± 3.2 | 40.5 ± 6.8 | – | – | – | – | 29.8 ± 4.8
19 | CCOC(=O)C1=C(C)NC2=C(C(=O)CC(C)(C)C2)C1c1ccc2c(c1)OCO2 (stereo not drawn) [Compound 12] | < 50 | 30.3 ± 5.2 | > 60.6 | 14.9 ± 2.6 | 42.5 ± 7.2 | – | – | 47.5 ± 6.2 | inactive | –
20 | CCOC(=O)C1=C(C)NC2=C(C(=O)CC(C)(C)C2)C1c1ccc(C)cc1 (stereo not drawn) [Compound 2] | > 58.8 | > 58.8 | > 58.8 | 52.9 ± 9.8 | 47.8 ± 7.6 | – | – | – | – | –
21 | CCOC(=O)C1=C(C)NC2=C(C(=O)CC(C)(C)C2)C1c1ccc(OCc2ccccc2)cc1 (racemic) [Compound 4, (±)-ethyl 4-(4-(benzyloxy)phenyl)-2,7,7-trimethyl-5-oxo-1,4,5,6,7,8-hexahydroquinoline-3-carboxylate] | > 46.7 | 3.1 ± 0.4 | 23.3 ± 3.4 | 17.5 ± 3 | 25.1 ± 3.7 | – | – | – | – | –
22 | CCOC(=O)C1=C(C)NC2=C(C(=O)CC(C)(C)C2)C1c1cccc(Cl)c1 (stereo not drawn) [Compound 8] | > 55.6 | > 55.6 | > 55.6 | > 55.6 | > 55.6 | – | – | – | – | –
23 | CCOC(=O)C1=C(C)NC(C)=C(C(=O)OCC)C1c1ccc(OCc2ccccc2)cc1 [Compound 19] | > 47.8 | > 47.8 | > 47.8 | 33.5 ± 6.2 | 43.4 ± 7.5 | – | – | – | – | –
24 | CCOC(=O)C1=C(C)NC(C)=C(C(=O)OCC)C1c1ccc(Br)cc1 [Compound 20] | > 50.9 | > 50.9 | > 50.9 | 35 ± 5.9 | 44.8 ± 8.2 | – | – | – | – | –
